These results are taken from patent US20140094465A1, “Compounds as S-Nitrosoglutathione Reductase Inhibitors” (N30 PHARMACEUTICALS, INC., priority 2011, published 2014).

For orientation: IC50 means the midpoint of a concentration-inhibition curve.

Where only a bound is given, the exact number is not on record here.

In one test the target is T1, S-nitrosoglutathione reductase (GSNOR) (Homo sapiens, UniProt P11766).
T1 construct: made in house; host or cells: E. coli
T1 sequence (P11766 whole entry): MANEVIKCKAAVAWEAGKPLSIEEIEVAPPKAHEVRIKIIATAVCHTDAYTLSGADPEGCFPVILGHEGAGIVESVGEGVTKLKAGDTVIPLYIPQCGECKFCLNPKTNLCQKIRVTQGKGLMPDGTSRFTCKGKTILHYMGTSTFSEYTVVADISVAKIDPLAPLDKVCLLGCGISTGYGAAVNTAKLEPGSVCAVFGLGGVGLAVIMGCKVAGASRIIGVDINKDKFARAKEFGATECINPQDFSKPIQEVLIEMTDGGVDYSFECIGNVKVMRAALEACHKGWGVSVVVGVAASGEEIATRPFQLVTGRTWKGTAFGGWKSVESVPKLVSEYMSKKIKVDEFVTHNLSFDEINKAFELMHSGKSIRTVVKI
Kind of test: GSNOR assay (inhibition of GSNOR activity, NADH absorbance at 340 nm). It counts as biochemical. The settings on record: GSNOR inhibitor activity, Tables 1-6; read-out: IC50 range. The method, then:
Various compounds were tested in vitro for their ability to inhibit GSNOR activity.
GSNOR expression and purification is described in Biochemistry 2000, 39, 10720-10729.
Pre-cultures were grown from stabs of a GSNOR glycerol stock in 2XYT media containing 100 ug/ml ampicillin after an overnight incubation at 37° C. […] GSNOR expression was induced with 0.1% arabinose in an overnight incubation at 20° C.
E. coli cell paste was lysed by nitrogen cavitation and the clarified lysate purified by Ni affinity chromatography on an AKTA FPLC (Amersham Pharmacia). The column was eluted in 20 mM Tris pH 8.0/250 mM NaCl with a 0-500 mM imidazole gradient. Eluted GSNOR fractions containing the Smt-GSNOR fusion were digested overnight with Ulp-1 at 4° C. to remove the affinity tag then re-run on the Ni column under the same conditions. GSNOR was recovered in the flowthrough fraction and for crystallography is further purified by Q-Sepharose and Heparin flowthrough chromatography in 20 mM Tris pH 8.0, 1 mM DTT, 10 uM ZnSO4.
GSNOR assay: GSNO and enzyme/NADH Solutions are made up fresh each day. The solutions are filtered and allowed to warm to room temperature. GSNO solution: 100 mM NaPO4 (pH 7.4), 0.480 mM GSNO. 396 μL of GSNO Solution is added to a cuvette followed by 8 μL of test compound in DMSO (or DMSO only for full reaction control) and mixed with the pipette tip. Compounds to be tested are made up at a stock concentration of 10 mM in 100% DMSO. 2 fold serial dilutions are done in 100% DMSO. 8 μL of each dilution are added to an assay so that the final concentration of DMSO in the assay is 1%. The concentrations of compounds tested range from 100 to 0.003 μM. Enzyme/NADH solution: 100 mM NaPO4 (pH 7.4), 0.600 mM NADH, 1.0 μg/mL GSNO Reductase. 396 μL of the Enzyme/NADH solution is added to the cuvette to start the reaction. The cuvette is placed in the Cary 3E UV/Visible Spectrophotometer and the change in 340 nm absorbance/min at 25° C. is recorded for 3 minutes. The assays are done in triplicate for each compound concentration. IC50's for each compound are calculated using the standard curve analysis in the Enzyme Kinetics Module of SigmaPlot.
Final assay conditions: 100 mM NaPO4, pH 7.4, 0.240 mM GSNO, 0.300 mM NADH, 0.5 μg/mL GSNO Reductase, and 1% DMSO. Final volume: 800 μL/cuvette.
For the compound `O=C(O)c1ccc(-c2ccc3cc(O)ccc3c2)c(N2CCOCC2)c1` [III-10], the IC50 lay in the range of 100 to 1000 nM.
As to `Oc1ccc2cc(-c3ccc(-c4nnn[nH]4)cc3)ccc2c1` [III-18], the IC50 is less than 100 nM.
Still for that read-out and setting: to `O=C(O)c1ccc(-c2cc(F)c3cc(O)ccc3c2)c(F)c1` [III-38, 3-fluoro-4-(4-fluoro-6-hydroxynaphthalen-2-yl)benzoic acid] belongs less than 100 nM.
Take `O=C(O)c1ccc(-c2ccc3cc(O)ccc3c2)cn1` [III-4]: the IC50 fell in the range of 1000 to 10000 nM.
The same measure, in the same setting: to `Cc1cc(C(=O)O)ccc1-c1ccc2cc(O)ccc2c1` [III-37, 4-(6-hydroxynaphthalen-2-yl)-3-methylbenzoic acid] belongs less than 100 nM; to `O=C(O)c1ccc(COc2ccc(O)cc2F)c(F)c1` [VI-19, 3-fluoro-4-((2-fluoro-4-hydroxyphenoxy)methyl)benzoic acid], 100 to 1000 nM.
On the same count and under the same terms, the result for `O=C(O)c1ccc(-c2cc(F)c3cc(O)ccc3c2)cc1` [III-39, 4-(4-fluoro-6-hydroxynaphthalen-2-yl)benzoic acid] reads less than 100 nM; that for `O=C(O)c1ccc(NC(=O)c2ccc(O)cc2F)cc1` [VI-15, 4-(2-fluoro-4-hydroxybenzamido)benzoic acid], 100 to 1000 nM; that for `O=C(O)c1ccc(CSc2ccc(O)cc2)c(F)c1` [VI-24, 3-fluoro-4-(((4-hydroxyphenyl)thio)methyl)benzoic acid], 100 to 1000 nM.
Regarding `O=C(O)C1CCN(c2nc3ccc(O)cc3cc2C(F)(F)F)CC1` [Compound I-41], the IC50 is less than 100 nM.
Turning to `O=C(O)c1ccc(-c2c(C(F)(F)F)oc3cc(O)ccc3c2=O)s1` [IV-24], the IC50 is less than 100 nM.
On the same count and under the same terms, the result for `CC(C(=O)c1ccc(O)cc1O)c1ccc(C(=O)O)cc1` (stereo not drawn) [VI-12, 4-(1-(2,4-dihydroxyphenyl)-1-oxopropan-2-yl)benzoic acid] reads 1000 to 10000 nM.
Same read-out and setting: to `O=c1nc(-c2ccc(-c3ccc4cc(O)ccc4n3)cc2)[nH]o1` [Compound I-12] belongs less than 100 nM; to `O=C(O)c1ccc(CC(=O)c2ccc(O)c(F)c2)c(F)c1` [VI-4, 3-fluoro-4-(2-(3-fluoro-4-hydroxyphenyl)-2-oxoethyl)benzoic acid], less than 100 nM.
With `O=[N+]([O-])c1cc(-c2ccc3cc(O)ccc3c2)ccc1O` [III-36, 6-(4-hydroxy-3-nitrophenyl)naphthalen-2-ol], the IC50 is 100 to 1000 nM.
Turning to `COc1cc(C(=O)O)ccc1-c1ncc2cc(O)ccc2n1` [II-5], the IC50 is less than 100 nM.
The same measure, in the same setting: the result for `O=C(O)c1ccc(NCc2ccc(O)c(F)c2)c(F)c1` [VI-31, 3-fluoro-4-((3-fluoro-4-hydroxybenzyl)amino)benzoic acid] reads 1000 to 10000 nM.
Turning to `O=C(O)c1ccc(-c2nc3ccc(O)cc3nc2C(F)(F)F)c(F)c1` [II-26, 3-fluoro-4-(6-hydroxy-3-(trifluoromethyl)quinoxalin-2-yl)benzoic acid], the half-inhibitory concentration (IC50) is less than 100 nM.
On to `O=C(O)c1ccc(-c2ccc3c(F)c(O)ccc3c2)c(Cl)c1` [III-30], for which the IC50 is less than 100 nM.
For `Oc1ccc2nc(-c3ccc(-c4nn[nH]n4)s3)ccc2c1` [Compound I-38], the IC50 fell in the range of 100 to 1000 nM.
Turning to `O=C(O)c1ccc(COc2ccc(O)c(F)c2)c(F)c1` [VI-23, 3-fluoro-4-((3-fluoro-4-hydroxyphenoxy)methyl)benzoic acid], the IC50 fell in the range of 100 to 1000 nM.
As for `O=C(O)c1ccc(CC(=O)c2cc(F)c(O)c(F)c2)c(F)c1` [VI-8, 4-(2-(3,5-difluoro-4-hydroxyphenyl)-2-oxoethyl)-3-fluorobenzoic acid], the IC50 was 100 to 1000 nM.
For `O=C(O)c1ccc(NCc2ccc(O)c(F)c2F)c(F)c1` [VI-32, 4-((2,3-difluoro-4-hydroxybenzyl)amino)-3-fluorobenzoic acid], the IC50 lay within 100 to 1000 nM.
As for `COc1cc(Oc2c(C(F)(F)F)oc3cc(O)ccc3c2=O)ccc1C(=O)O` [Compound V-5], the 50% inhibitory concentration (IC50) fell in the range of 1000 to 10000 nM.
On the same count and under the same terms, the result for `O=C(O)c1ccc(-c2ccc3cc(O)ccc3n2)s1` [Compound I-15] reads 1000 to 10000 nM; that for `O=C(O)c1ccc(-c2ncc3cc(O)ccc3n2)c(F)c1` [II-6], less than 100 nM; that for `N#Cc1cc2cc(O)ccc2nc1-c1ccc(C(=O)O)cc1` [Compound I-52, 4-(3-cyano-6-hydroxyquinolin-2-yl)benzoic acid], less than 100 nM.
The same measure, in the same setting: to `O=C(O)c1ccc(/C=C/c2ccc(O)cc2O)cc1` [VI-13, (E)-4-(2,4-dihydroxystyryl)benzoic acid] belongs 1000 to 10000 nM; to `Cc1oc2cc(O)ccc2c(=O)c1-c1ccc(-c2nnn[nH]2)cc1` [IV-28], less than 100 nM.
For the compound `O=C(O)C1CCN(c2ncc3cc(O)ccc3n2)CC1` [II-7], the IC50 fell in the range of 1000 to 10000 nM.
`O=C(O)[C@H]1CC[C@H](c2nc3ccc(O)cc3nc2C(F)(F)F)CC1` [II-27, (trans)-4-(6-hydroxy-3-(trifluoromethyl)quinoxalin-2-yl)cyclohexanecarboxylic acid]: the 50% inhibitory concentration (IC50) is less than 100 nM.
In the case of `O=C(O)c1ccc(CCC(=O)c2ccc(O)c(F)c2F)cc1` [VI-29, 4-(3-(2,3-difluoro-4-hydroxyphenyl)-3-oxopropyl)benzoic acid], the IC50 was in the range of 1000 to 10000 nM.
Regarding `Cc1cc2cc(O)ccc2nc1-c1ccc(C(=O)O)cc1` [Compound I-1], the IC50 was less than 100 nM.
Turning to `O=C(O)c1ccc(CC(=O)c2ccc(O)cc2Cl)c(F)c1` [VI-6, 4-(2-(2-chloro-4-hydroxyphenyl)-2-oxoethyl)-3-fluorobenzoic acid], the IC50 is less than 100 nM.
For the compound `O=C(O)c1ccc(-c2nc3ccc(O)cc3nc2C(F)(F)F)c(Cl)c1` [II-8], the IC50 is less than 100 nM.
On to `O=C(O)c1ccc(-c2cc3ccc(O)cc3cc2F)c(Cl)c1` [III-21, 3-chloro-4-(3-fluoro-6-hydroxynaphthalen-2-yl)benzoic acid], for which the IC50 is less than 100 nM.
Take `O=C(O)c1ccc(Oc2c(-c3ccc(F)cc3)oc3cc(O)ccc3c2=O)cc1` [Compound V-8, 4-(2-(4-fluorophenyl)-7-hydroxy-4-oxo-4H-chromen-3-yloxy)benzoic acid]: the IC50 lay in the range of 1000 to 10000 nM.
Consider `O=C(O)c1ccc(-c2ccc3cc(O)ccc3n2)cc1Cl` [Compound I-9], for which the IC50 fell in the range of 1000 to 10000 nM.

Staying with this test, now noted: Table 7; GSNOR inhibition, IC50 range class a/b/c; read-out: IC50.
Turning to `O=C(O)c1ccc(-c2cnc(-c3ccc(O)cc3)nc2)cc1` [VII-15, 4-(2-(4-hydroxyphenyl)pyrimidin-5-yl)benzoic acid], the IC50 was 1000 to 10000 nM.
Take `CCCCCCn1c(-c2ccc(O)cc2)ccc1-c1ccc(C(=O)O)cc1` [VII-34, 4-(1-hexyl-5-(4-hydroxyphenyl)-1H-pyrrol-2-yl)benzoic acid]: the IC50 was less than 100 nM.
Take `COCCn1c(-c2ccc(O)cc2)ccc1-c1ccc(C(=O)O)s1` [VII-25, 5-(5-(4-hydroxyphenyl)-1-(2-methoxyethyl)-1H-pyrrol-2-yl)thiophene-2-carboxylic acid]: the IC50 was less than 100 nM.
Regarding `CC(C)CCn1c(-c2ccc(O)cc2)ccc1-c1ccc(C(=O)O)s1` [VII-27, 5-(5-(4-hydroxyphenyl)-1-isopentyl-1H-pyrrol-2-yl)thiophene-2-carboxylic acid], the IC50 was less than 100 nM.
In the case of `O=C(O)c1ccc(-c2csc(-c3ccc(O)cc3)c2)s1` [VII-20, 5′-(4-hydroxyphenyl)-[2,3′-bithiophene]-5-carboxylic acid], the half-maximal inhibitory concentration (IC50) was in the range of 100 to 1000 nM.
As for `O=C(O)c1ccc(-c2cc(-c3ccc(O)cc3)cs2)s1` [VII-19, 4′-(4-hydroxyphenyl)-[2,2′-bithiophene]-5-carboxylic acid], the IC50 was 100 to 1000 nM.
Turning to `Cn1c(-c2ccc(O)cc2)ccc1-c1ccc(C(=O)O)s1` [VII-24, 5-(5-(4-hydroxyphenyl)-1-methyl-1H-pyrrol-2-yl)thiophene-2-carboxylic acid], the IC50 lay within 100 to 1000 nM.

The same test, now with this note: Table 8; GSNOR inhibition, IC50 range class a/b/c; read-out: IC50.
`O=c1c2ccc(O)cc2cc(C(F)(F)F)n1[C@H]1CC[C@H](C(=O)O)CC1` [VIII-15, (trans)-4-(6-hydroxy-1-oxo-3-(trifluoromethyl)isoquinolin-2(1H)-yl)cyclohexanecarboxylic acid]: the IC50 was less than 100 nM.
Still for that read-out and setting: to `Oc1ccc2nc(-c3ccc(-c4nnn[nH]4)cc3)sc2c1` [VIII-5, 2-(4-(1H-tetrazol-5-yl)phenyl)benzo[d]thiazol-6-ol] belongs 100 to 1000 nM; to `CSc1nc2cc(O)ccc2c(=O)n1-c1ccc(C(=O)O)cc1` [VIII-1, 4-(7-hydroxy-2-(methylthio)-4-oxoquinazolin-3(4H)-yl)benzoic acid], 1000 to 10000 nM.
